In US10016414B2, “Modulation of ubiquitination of synaptic proteins for the treatment of neurodegenerative and psychiatric disorders” (UNIVERSITY OF MASSACHUSETTS, priority 2010, dated 2018):
“And” between values parts separate entries of the source, which are not always exact repeats. Equal values may be shown once. Peptide text beside a SMILES is read from it. * marks the point of attachment. Cbz = O=C(OCc1ccccc1)*

Key:
PSD-95 degradation = conditions: Colledge et al., 2003; cited from earlier work
PSD-95 ubiquitination = PSD-95 ubiquitination in acute forebrain slices (PSD-95 immunoprecipitation, ubiquitin/FK1/FK2 immunoblot); assay type: cell-based, mouse; conditions: wild-type slices; NMDA 100 μM, 3 min; 10 min after washout
[1] = test system: interaction of β-adaptin with PSD-95; test: NMDA-dependent interaction of PSD-95 with β-adaptin in acute forebrain slices (co-immunoprecipitation); assay type: cell-based, mouse; conditions: NMDA 100 μM, 3 min; for interaction of β-adaptin with PSD-95 (percentage of p53 knockout unstimulated control): n=3
Method: A. Immunoblot showing that NMDA receptors regulate the interaction of PSD-95 with β-adaptin. Acute forebrain slices from wild-type mice were stimulated with NMDA (100 μM, 3 min) and, after NMDA washout, incubated for additional 5 or 10 min.
B. Immunoblot showing that genetic deletion of Mdm2 reduces the NMDA-dependent interaction of PSD-95 with β-adaptin. Acute forebrain slices from p53 knockout (control) and Mdm2/p53 double knockout mice were stimulated with NMDA (100 μM, 3 min) and, after NMDA washout, incubated for an additional 5 or 10 min.
Acute forebrain slices were prepared as previously described (Patel et al., 2003; Zhang et al., 2008). Briefly, brains of adult wild-type, p53 knockout or Mdm2/p53 double knockout mice were isolated, and 300 μm coronal slices of forebrain (within the region corresponding approximately to Bregma −1.0 to −3.5 mm, containing the hippocampus) were prepared using a Vibratome (Leica Microsystems VT1000S) in ice-cold oxygenated artificial cerebrospinal fluid (ACSF: 117 mM NaCl, 1.7 mM KCl, 1.2 mM MgCl2, 2.5 mM CaCl2, 1.2 mM NaH2PO4, 25 mM NaHCO3, 11.5 mM glucose). Slices were preincubated in ACSF for 1 h before treatments and all experiments were conducted at 32° C. in 95% O2 and 5% CO2 incubator. NMDA treatment was conducted by incubating slices with 100 μM NMDA for 3 min in ACSFcLTD (124 mM NaCl, 5 mM KCl, 1.5 mM MgCl2, 2.5 mM CaCl2, 1.25 mM NaH2PO4, 26 mM NaHCO3, 10 mM glucose) (Lee et al., 1998). After agonist washout, the slices were further incubated in ACSF-cLTD for the time indicated (5-10 min). Slice lysates were prepared as previously described (Zhang et al., 2008) and PSD-95 immunoprecipitated from the lysates was analyzed by Western blot and quantified as described above. Values were expressed as mean±S.E.M. and statistically compared using analysis of variance (ANOVA).
PSD-95 is important for NMDAR-induced endocytosis of synaptic AMPARs (Colledge et al., 2003; Bhattacharyya et al., 2009) and a brief application of NMDA induces both a rapid and transient increase in PSD-95 ubiquitination, which peaks approximately 10 min after the onset of NMDA treatment (Colledge et al., 2003). […] Following a brief (3 min) stimulation with 100 μM NMDA, a treatment that induces AMPAR endocytosis (Bhattacharyya et al., 2009), acute forebrain slices from adult wildtype mice were analyzed at 5 min and 10 min after agonist washout. PSD-95 immunoprecipitated from slice lysates was analyzed for coimmunoprecipitation of β-adaptin and ubiquitination (FIG. 5A).
To further investigate whether ubiquitination of PSD-95 promotes the interaction of PSD-95 with β-adaptin, this interaction was investigated in acute brain slices derived from mice with a genetic deletion of the ubiquitin ligase Mdm2. Acute forebrain slices from adult Mdm2/p53 double knockout mice and control p53 knockout mice were analyzed at 5 min and 10 min after NMDA (100 μM, 3 min) washout. The interaction of PSD-95 with β-adaptin was assessed by immunoblot of PSD-95 immunoprecipitated from slice lysates (FIG. 5B).

[2] = test system: surface GluA2 (AMPAR) in hippocampal neurons; test: NMDA-induced AMPAR endocytosis: surface GluA2 by antibody feeding in hippocampal cultures; assay type: cell-based, rat; conditions: NMDA 100 μM for 3 min
Method: A. Micrograph showing GluA2 surface expression upon NMDA treatment in the presence or absence of Nutlin-3. Cultured hippocampal neurons were subjected to an antibody feeding protocol using an antibody that recognizes an extracellular domain of GluA2. The neurons were subsequently pretreated with Nutlin-3 (5 μM for 30 min) prior to NMDA treatment (100 μM for 3 min), followed by agonist washout. Neurons were incubated for an additional 15 min (with or without Nutlin-3) before immunocytochemical analysis of PSD-95 and surface GluA2 by confocal microscopy.
B. A bar graph depicting the proportion of GluA2 found at the surface of cultured hippocampal neurons upon treatment with or without NMDA, in the presence or absence of Nutlin-3. Results are presented as mean±SEM.
Brief stimulation of NMDARs induces AMPAR endocytosis in cultured neurons (Colledge et al., 2003; Bhattacharyya et al., 2009). To determine whether Nutlin-3a antagonizes NMDA-induced AMPAR endocytosis, measured as loss of surface AMPAR staining, the surface expression of GluA2 (a subunit of AMPARs in rat hippocampal cultures) was assessed. Surface GluA2 were labeled in vivo by an antibody feeding protocol using an antibody that recognizes an extracellular domain of GluA2 (Ehlers, 2000; Lin et al., 2000; Bhattacharyya et al., 2009). Neurons were pretreated with Nutlin-3a (5 μM for 30 min) prior to NMDA treatment. After brief stimulation with NMDA (100 μM for 3 min) and agonist washout, neurons were incubated for an additional 15 min (with or without Nutlin-3a) before immunocytochemical analysis of PSD-95 and surface GluA2 by confocal microscopy under the same settings. Immunostained puncta were quantified using MetaMorph software (3 neurons from 2 coverslips with approximately 450 puncta analyzed/condition) and the number of GluA2 puncta was normalized to the number of PSD-95 puncta.
Naïve and NMDA-stimulated conditions were used as controls. […]

3×Tg-AD mice = conditions: Martinez-Coria-LaFeria, 2010; cited from earlier work
[3] = test system: surface GluA1 (AMPAR) in hippocampal neurons; test: Aβ-induced AMPAR endocytosis: surface GluA1 in cultured hippocampal neurons; assay type: cell-based, rat; conditions: for GluA1 surface expression (GluA1 puncta normalized to SV2 puncta and to naïve cultures): 2 hrs, naïve 100%±4%, n=3
Method: A. Micrograph showing GluA2 surface expression upon Aβ treatment in the presence or absence of Nutlin-3. Rat hippocampal neurons were cultured, and treated with Aβ or Aβ together with either Nutlin-3 (5 μM) or HLI373 (15 μM) for 2 hours. The final concentration of Aβ was 0.3 ng/mL. Naïve and Nutlin-3 and HLI373 treatments, without Aβ treatment, were used as controls. Surface expression of AMPARs was measured by labeling the cultured neurons in vivo with an antibody to the AMPAR subunit GluA1, followed by confocal microscopy and immunofluorescence quantification by MetaMorph. The number of GluA1 puncta was normalized to SV2 puncta (a presynaptic marker) and to the value in control naïve cultures. […] Scale bar=5 μm. B. Bar graph showing quantification of the percentage of surface GluA1 in response to the various treatment described in A. Results are presented as mean±SEM.
Soluble amyloid beta (Aβ) peptides contribute directly to synapse loss and decreased dendritic spine density and glutamate receptors at the synapse. Moreover, Aβ has been reported to induce AMPAR internalization in cultured neurons. To evaluate the effect of Mdm2 inhibitors on this process, cultured rat hippocampal neurons were treated for 2 hrs with Aβ (or Aβ together with either Nutlin-3 (5 μM) or HLI-373 (15 μM). Aβ can be prepared from 7PA2 Chinese hamster ovary (CHO) cells stably expressing human amyloid precursor protein (APP)751 containing the V717 mutation (Walsh et al., 2005; Shankar et al., 2007; Shankar et al., 2011), and is also available commercially from, e.g., rPeptide (Bogart, G A). The concentration of Aβ in the hippocampal cultures was 0.3 ng/mL. Naïve and Nutlin-3 and HLI-373 treatments were used as controls. Surface expression of AMPARs was measured by labeling the cultured neurons in vivo with an antibody to the AMPAR subunit GluA1, followed by confocal microscopy and immunofluorescence quantification by MetaMorph. The number of GluA1 puncta was normalized to SV2 puncta (a presynaptic marker) and to the value in control naïve cultures (see FIGS. 8A and B).
Minimum inhibitor concentrations of Nutlin-3a or HLI-373, as well as any other Mdm2 inhibitor identified using the screens described supra, can be readily determined by using different ranges of inhibitor concentrations and assessing the effects of the particular concentrations on surface expression of AMPARs. Similar results are expected with other inhibitors of PSD-95 ubiquitination by Mdm2, such as PSD-95 inhibitors.

## CC(C)C[C@@H](C=O)NC(=O)[C@H](CC(C)C)NC(=O)[C@H](CC(C)C)NC(=O)OCc1ccccc1 [MG132] (Cbz-Leu-Leu-Leu-aldehyde)
PSD-95 degradation
  effect on PSD-95 degradation: protect PSD-95 from degradation

## CN[C@H](CC(=O)O)C(=O)O [NMDA, N-Methyl-D-aspartic acid]
PSD-95 ubiquitination
  PSD-95 ubiquitination (FK2 immunoblot) versus unstimulated control: increased ubiquitination at 10 min after NMDA washout
[1]; Mdm2/p53 double knockout slices, 5 min after washout
  interaction of β-adaptin with PSD-95 (percentage of p53 knockout unstimulated control): 45.6%±1.8%
[1]; Mdm2/p53 double knockout slices, 10 min after washout
  interaction of β-adaptin with PSD-95 (percentage of p53 knockout unstimulated control): 99.8%±43.7%
[1]; p53 knockout slices, 5 min after washout, control 100%±14.9%
  interaction of β-adaptin with PSD-95 (percentage of p53 knockout unstimulated control): 209.0%±72.6%
[1]; p53 knockout slices, 10 min after washout
  interaction of β-adaptin with PSD-95 (percentage of p53 knockout unstimulated control): 549.8%±168% and 549.8%±167.7%
[1]; wild-type slices, 10 min after washout
  coimmunoprecipitation of β-adaptin with PSD-95 versus unstimulated control: coimmunoprecipitation of β-adaptin with PSD-95 10 min after NMDA washout
[2]
  PSD-95 puncta following NMDA stimulation of naïve cultures: did not decrease
[2]; then 15 min, no inhibitor, naïve 100%±9.47%, n=3
  GluA2 surface expression (GluA2 puncta normalized to PSD-95 puncta, versus naïve control): 41.95±9.63%

## CC12CC3CC(C)(C1)CC(N)(C3)C2 [Memantine, 1-amino-3,5-dimethyl-adamantane]
3×Tg-AD mice
  AD-like neuropathology in 3×Tg-AD mice: reduce AD-like neuropathology
  cognition in 3×Tg-AD mice: improve cognition

## CN(C)CCCNc1c2c(=O)n(C)c(=O)nc-2n(C)c2ccccc12 [HLI-373]
[3]; Aβ 0.3 ng/mL, 2 hours, Nutlin-3 5 μM, HLI373 15 μM
  effect on loss of surface GluA1 induced by Aβ: prevented the loss of surface GluA1 induced by Aβ treatment
[3]; co-treatment with Aβ 0.3 ng/mL, Nutlin 5 μM, HLI373 15 μM
  GluA1 surface expression (GluA1 puncta normalized to SV2 puncta and to naïve cultures): 132.18%±11.33%
[3]; inhibitor alone, without Aβ, Nutlin-3 5 μM, HLI-373 15 μM
  GluA1 surface expression (GluA1 puncta normalized to SV2 puncta and to naïve cultures): 170.95%±5.37%
